# Experiments:
# Assay type in all cases: in vivo
# barnyardgrass [1] = test: Test Example 1: herbicidal effects in preemergence treatment under submerged conditions; conditions: dose 2.52 g/a
# Procedure, shortened: (§1)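 Scoring 0 (<5% mortality) to 5 (≥90%) was done three weeks after preemergence application to the water surface of submerged (4 cm) alluvial soil, doses given as g per are. Weeds were seeded and 2.5-leaf rice transplanted on the treatment day; greenhouse at 25–30 °C.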
# bulrush [2] = test: as above; conditions: dose 2.52 g/a
# Procedure, shortened: as §1
# ducksalad [3] = test: as above; conditions: dose 2.52 g/a
# Procedure, shortened: as §1
# transplanted rice = test: Test Example 1: preemergence treatment under submerged conditions, effect on crop; conditions: dose 2.52 g/a
# Procedure, shortened: as §1
# bulrush [4] = test: Test Example 2: herbicidal effects during the vegetation period under submerged conditions; conditions: treatment during the vegetation period under submerged conditions; dose 2.52 g/a
# Procedure, shortened: (§2)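 Barnyardgrass, bulrush and ducksalad were co-sown in alluvial soil flooded to 4 cm and grown in a greenhouse at 25 to 30° C. At the 1- or 2-leaf stage, water-diluted emulsifiable concentrates went onto the water surface at set doses (g/a). Herbicidal effect was scored three weeks later on a graded scale.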
# ducksalad [5] = test: as above; conditions: treatment during the vegetation period under submerged conditions; dose 2.52 g/a
# Procedure, shortened: as §2
# Italian ryegrass [6] = test: Test Example 3: herbicidal effects in soil treatment
# Procedure, shortened: (§3)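 Seeds were sown in sterilized diluvial soil and covered with about 1.5 cm of soil. Compounds, formulated as emulsifiable concentrates and diluted with water, were sprayed evenly over the soil surface at set doses in g/a. Herbicidal effect was scored on a rating scale three weeks later.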
# barnyardgrass [7] = test: as above
# Procedure, shortened: as §3
# beadstraw [8] = test: as above
# Procedure, shortened: as §3
# common chickweed [9] = test: as above; conditions: dose 6.3 g/a
# Procedure, shortened: as §3
# common lambsquater [10] = test: as above
# Procedure, shortened: as §3
# common ragweed [11] = test: as above
# Procedure, shortened: as §3
# giant foxtail [12] = test: as above
# Procedure, shortened: as §3
# large crabgrass [13] = test: as above
# Procedure, shortened: as §3
# posumbu knotweed [14] = test: as above
# Procedure, shortened: as §3
# redroot pigweed [15] = test: as above
# Procedure, shortened: as §3
# velvetleaf [16] = test: as above
# Procedure, shortened: as §3
# water foxtail [17] = test: as above
# Procedure, shortened: as §3
# wild oat [18] = test: as above
# Procedure, shortened: as §3
# Italian ryegrass [19] = test: Test Example 4: herbicidal effect in foliage treatment; conditions: three weeks after application
# Procedure, shortened: (§4)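 14-day greenhouse-grown plants (25–30° C) sprayed on foliage with diluted EC; dose as g/a; effect graded after 3 weeks.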
# barnyardgrass [20] = test: as above; conditions: three weeks after application
# Procedure, shortened: as §4
# beadstraw [21] = test: as above; conditions: three weeks after application
# Procedure, shortened: as §4
# common chickweed [22] = test: as above; conditions: three weeks after application
# Procedure, shortened: as §4
# common lambsquater [23] = test: as above; conditions: three weeks after application
# Procedure, shortened: as §4
# common ragweed [24] = test: as above; conditions: three weeks after application
# Procedure, shortened: as §4
# giant foxtail [25] = test: as above; conditions: three weeks after application
# Procedure, shortened: as §4
# large crabgrass [26] = test: as above; conditions: three weeks after application
# Procedure, shortened: as §4
# posumbu knotweed [27] = test: as above; conditions: three weeks after application
# Procedure, shortened: as §4
# redroot pigweed [28] = test: as above; conditions: three weeks after application
# Procedure, shortened: as §4
# velvetleaf [29] = test: as above; conditions: three weeks after application
# Procedure, shortened: as §4
# water foxtail [30] = test: as above; conditions: three weeks after application
# Procedure, shortened: as §4
# wild oat [31] = test: as above; conditions: three weeks after application
# Procedure, shortened: as §4
# barnyardgrass [32] = test: Test Example 2: herbicidal effects during the vegetation period under submerged conditions; conditions: treatment during the vegetation period under submerged conditions; dose 2.52 g/a
# Procedure, shortened: as §2
structure (smiles),measurement,setting,value
"CCOC(=O)N(c1ccccc1CN1CCSCC1=O)S(=O)(=O)C(F)(F)F [Compound I-18, 4-[2-(N-ethoxycarbonyl-N-trifluoromethanesulfonyl)aminobenzyl]-1,4-thiazinan-3-one]","A: barnyardgrass, herbicidal effect (evaluation scale 0-5)",barnyardgrass [1],5 (mortality of 90% or above (nearly complete death))
same,"B: bulrush, herbicidal effect (evaluation scale 0-5)",bulrush [2],5 (mortality of 90% or above (nearly complete death))
same,"C: ducksalad, herbicidal effect (evaluation scale 0-5)",ducksalad [3],5 (mortality of 90% or above (nearly complete death))
same,"a: transplanted rice, effect on crop (evaluation scale 0-5)",transplanted rice,0 (mortality of less than 5% (almost ineffective))
same,"B: bulrush, herbicidal effect (evaluation scale 0-5)",bulrush [4],5 (mortality of 90% or above (nearly complete death))
same,"C: ducksalad, herbicidal effect (evaluation scale 0-5)",ducksalad [5],4 (mortality of at least 70% and less than 90%)
same,"H: Italian ryegrass, herbicidal effect (evaluation scale 0-5)",Italian ryegrass [6]; dose 6.3 g/a,4 (mortality of at least 70% and less than 90%)
same,"A: barnyardgrass, herbicidal effect (evaluation scale 0-5)",barnyardgrass [7]; dose 6.3 g/a,5 (mortality of 90% or above (nearly complete death))
same,"O: beadstraw, herbicidal effect (evaluation scale 0-5)",beadstraw [8]; dose 6.3 g/a,3 (mortality of at least 40% and less than 70%)
same,"N: common chickweed, herbicidal effect (evaluation scale 0-5)",common chickweed [9],4 (mortality of at least 70% and less than 90%)
same,"L: common lambsquater, herbicidal effect (evaluation scale 0-5)",common lambsquater [10]; dose 6.3 g/a,5 (mortality of 90% or above (nearly complete death))
same,"J: common ragweed, herbicidal effect (evaluation scale 0-5)",common ragweed [11]; dose 6.3 g/a,4 (mortality of at least 70% and less than 90%)
same,"E: giant foxtail, herbicidal effect (evaluation scale 0-5)",giant foxtail [12]; dose 6.3 g/a,5 (mortality of 90% or above (nearly complete death))
same,"D: large crabgrass, herbicidal effect (evaluation scale 0-5)",large crabgrass [13]; dose 6.3 g/a,4 (mortality of at least 70% and less than 90%)
same,"M: posumbu knotweed, herbicidal effect (evaluation scale 0-5)",posumbu knotweed [14]; dose 6.3 g/a,3 (mortality of at least 40% and less than 70%)
same,"K: redroot pigweed, herbicidal effect (evaluation scale 0-5)",redroot pigweed [15]; dose 6.3 g/a,4 (mortality of at least 70% and less than 90%)
same,"I: velvetleaf, herbicidal effect (evaluation scale 0-5)",velvetleaf [16]; dose 6.3 g/a,1 (mortality of at least 5% and less than 20%)
same,"G: water foxtail, herbicidal effect (evaluation scale 0-5)",water foxtail [17]; dose 6.3 g/a,5 (mortality of 90% or above (nearly complete death))
same,"F: wild oat, herbicidal effect (evaluation scale 0-5)",wild oat [18]; dose 6.3 g/a,0 (mortality of less than 5% (almost ineffective))
same,"H: Italian ryegrass, herbicidal effect",Italian ryegrass [19]; dose 6.3 g/a,4 (mortality of at least 70% and less than 90%)
same,"A: barnyardgrass, herbicidal effect",barnyardgrass [20]; dose 6.3 g/a,5 (mortality of 90% or above (nearly complete death))
same,"O: beadstraw, herbicidal effect",beadstraw [21]; dose 6.3 g/a,4 (mortality of at least 70% and less than 90%)
same,"N: common chickweed, herbicidal effect",common chickweed [22]; dose 6.3 g/a,4 (mortality of at least 70% and less than 90%)
same,"L: common lambsquater, herbicidal effect",common lambsquater [23]; dose 6.3 g/a,4 (mortality of at least 70% and less than 90%)
same,"J: common ragweed, herbicidal effect",common ragweed [24]; dose 6.3 g/a,3 (mortality of at least 40% and less than 70%)
same,"E: giant foxtail, herbicidal effect",giant foxtail [25]; dose 6.3 g/a,4 (mortality of at least 70% and less than 90%)
same,"D: large crabgrass, herbicidal effect",large crabgrass [26]; dose 6.3 g/a,4 (mortality of at least 70% and less than 90%)
same,"M: posumbu knotweed, herbicidal effect",posumbu knotweed [27]; dose 6.3 g/a,3 (mortality of at least 40% and less than 70%)
same,"K: redroot pigweed, herbicidal effect",redroot pigweed [28]; dose 6.3 g/a,4 (mortality of at least 70% and less than 90%)
same,"I: velvetleaf, herbicidal effect",velvetleaf [29]; dose 6.3 g/a,4 (mortality of at least 70% and less than 90%)
same,"G: water foxtail, herbicidal effect",water foxtail [30]; dose 6.3 g/a,5 (mortality of 90% or above (nearly complete death))
same,"F: wild oat, herbicidal effect",wild oat [31]; dose 6.3 g/a,3 (mortality of at least 40% and less than 70%)
CC(C)COC(=O)N(c1ccccc1CN1COC(C(F)(F)F)CC1=O)S(=O)(=O)C(F)(F)F (stereo not shown) [II-16],"A: barnyardgrass, herbicidal effect (evaluation scale 0-5)",barnyardgrass [1],5 (mortality of 90% or above (nearly complete death))
same,"B: bulrush, herbicidal effect (evaluation scale 0-5)",bulrush [2],5 (mortality of 90% or above (nearly complete death))
same,"C: ducksalad, herbicidal effect (evaluation scale 0-5)",ducksalad [3],5 (mortality of 90% or above (nearly complete death))
same,"a: transplanted rice, effect on crop (evaluation scale 0-5)",transplanted rice,0 (mortality of less than 5% (almost ineffective))
same,"A: barnyardgrass, herbicidal effect (evaluation scale 0-5)",barnyardgrass [32],1 (mortality of at least 5% and less than 20%)
same,"B: bulrush, herbicidal effect (evaluation scale 0-5)",bulrush [4],5 (mortality of 90% or above (nearly complete death))
same,"C: ducksalad, herbicidal effect (evaluation scale 0-5)",ducksalad [5],4 (mortality of at least 70% and less than 90%)
same,"H: Italian ryegrass, herbicidal effect (evaluation scale 0-5)",Italian ryegrass [6]; dose 3.2 g/a,0 (mortality of less than 5% (almost ineffective))
same,"A: barnyardgrass, herbicidal effect (evaluation scale 0-5)",barnyardgrass [7]; dose 3.2 g/a,0 (mortality of less than 5% (almost ineffective))
same,"O: beadstraw, herbicidal effect (evaluation scale 0-5)",beadstraw [8]; dose 3.2 g/a,0 (mortality of less than 5% (almost ineffective))
same,"L: common lambsquater, herbicidal effect (evaluation scale 0-5)",common lambsquater [10]; dose 3.2 g/a,1 (mortality of at least 5% and less than 20%)
same,"J: common ragweed, herbicidal effect (evaluation scale 0-5)",common ragweed [11]; dose 3.2 g/a,3 (mortality of at least 40% and less than 70%)
same,"E: giant foxtail, herbicidal effect (evaluation scale 0-5)",giant foxtail [12]; dose 3.2 g/a,0 (mortality of less than 5% (almost ineffective))
same,"D: large crabgrass, herbicidal effect (evaluation scale 0-5)",large crabgrass [13]; dose 3.2 g/a,0 (mortality of less than 5% (almost ineffective))
same,"M: posumbu knotweed, herbicidal effect (evaluation scale 0-5)",posumbu knotweed [14]; dose 3.2 g/a,0 (mortality of less than 5% (almost ineffective))
same,"K: redroot pigweed, herbicidal effect (evaluation scale 0-5)",redroot pigweed [15]; dose 3.2 g/a,0 (mortality of less than 5% (almost ineffective))
same,"I: velvetleaf, herbicidal effect (evaluation scale 0-5)",velvetleaf [16]; dose 3.2 g/a,0 (mortality of less than 5% (almost ineffective))
same,"G: water foxtail, herbicidal effect (evaluation scale 0-5)",water foxtail [17]; dose 3.2 g/a,5 (mortality of 90% or above (nearly complete death))
same,"F: wild oat, herbicidal effect (evaluation scale 0-5)",wild oat [18]; dose 3.2 g/a,0 (mortality of less than 5% (almost ineffective))
same,"H: Italian ryegrass, herbicidal effect",Italian ryegrass [19]; dose 3.2 g/a,0 (mortality of less than 5% (almost ineffective))
same,"A: barnyardgrass, herbicidal effect",barnyardgrass [20]; dose 3.2 g/a,0 (mortality of less than 5% (almost ineffective))
same,"O: beadstraw, herbicidal effect",beadstraw [21]; dose 3.2 g/a,0 (mortality of less than 5% (almost ineffective))
same,"N: common chickweed, herbicidal effect",common chickweed [22]; dose 3.2 g/a,2 (mortality of at least 20% and less than 40%)
same,"L: common lambsquater, herbicidal effect",common lambsquater [23]; dose 3.2 g/a,3 (mortality of at least 40% and less than 70%)
same,"J: common ragweed, herbicidal effect",common ragweed [24]; dose 3.2 g/a,2 (mortality of at least 20% and less than 40%)
same,"E: giant foxtail, herbicidal effect",giant foxtail [25]; dose 3.2 g/a,0 (mortality of less than 5% (almost ineffective))
same,"D: large crabgrass, herbicidal effect",large crabgrass [26]; dose 3.2 g/a,0 (mortality of less than 5% (almost ineffective))
same,"M: posumbu knotweed, herbicidal effect",posumbu knotweed [27]; dose 3.2 g/a,0 (mortality of less than 5% (almost ineffective))
same,"K: redroot pigweed, herbicidal effect",redroot pigweed [28]; dose 3.2 g/a,0 (mortality of less than 5% (almost ineffective))
same,"I: velvetleaf, herbicidal effect",velvetleaf [29]; dose 3.2 g/a,0 (mortality of less than 5% (almost ineffective))
same,"G: water foxtail, herbicidal effect",water foxtail [30]; dose 3.2 g/a,5 (mortality of 90% or above (nearly complete death))
same,"F: wild oat, herbicidal effect",wild oat [31]; dose 3.2 g/a,0 (mortality of less than 5% (almost ineffective))
